Assay results as given in DBAASP.
In brackets after ≈: the same amount, converted by molar mass.

How the values were obtained:
Assay in all cases: ≥ marks a high value that may be exact or a test limit, other limits are often not marked, values filed in µg/mL are converted to µM
Listeria innocua = test system: Listeria innocua
Leuconostoc lactis = test system: Leuconostoc lactis
Staphylococcus aureus = test system: Staphylococcus aureus
Pasteurella multocida = test system: Pasteurella multocida
[1] = test system: Staphylococcus epidermidis
Bacillus cereus = test system: Bacillus cereus
Enterococcus faecalis = test system: Enterococcus faecalis
Escherichia coli = test system: Escherichia coli
Micrococcus luteus = test system: Micrococcus luteus
Streptococcus uberis = test system: Streptococcus uberis
Serratia marcescens = test system: Serratia marcescens
Salmonella typhimurium = test system: Salmonella typhimurium
Proteus mirabilis = test system: Proteus mirabilis
Pseudomonas aeruginosa = test system: Pseudomonas aeruginosa
Candida albicans = test system: Candida albicans
Klebsiella pneumoniae = test system: Klebsiella pneumoniae
Shigella dysenteriae = test system: Shigella dysenteriae
[2] = test system: Pseudomonas aeruginosa PAO1
[3] = test system: Escherichia coli ATCC 25922
[4] = test system: Staphylococcus aureus USA 300
Acinetobacter baumannii = test system: Acinetobacter baumannii
[5] = test system: Candida albicans ATCC 2002
[6] = test system: Staphylococcus aureus ATCC 2592
Enterococcus faecium = test system: Enterococcus faecium
[7] = test system: Staphylococcus aureus ATCC 25923
[8] = test system: Pseudomonas aeruginosa CMCCB 10104

Row | MIC (Listeria innocua) [µM] | MIC (Leuconostoc lactis) [µM] | MIC (Staphylococcus aureus) [µM] | MIC (Pasteurella multocida) [µM] | MIC [1] [µM] | MIC (Bacillus cereus) [µM] | MIC (Escherichia coli) [µM] | MIC (Micrococcus luteus) [µM] | MIC (Streptococcus uberis) [µM] | MIC [3] [µM] | MIC [5] [µM] | MIC [7] [µM] | MIC [8] [µM] | SMILES | also measured
1 | ≥ 42.3 | ≥ 42.3 | 21.2 (≈ 50 µg/mL) | ≥ 42.3 | ≥ 42.3 | ≥ 42.3 | > 42.3 | ≥ 42.3 | 2.54 (≈ 6 µg/mL) | – | – | – | – | CC[C@H](C)[C@H](NC(=O)[C@H](C)NC(=O)[C@@H]1CCCN1C(=O)[C@@H](NC(=O)[C@@H](NC(=O)[C@H](Cc1cnc[nH]1)NC(=O)[C@H](CO)NC(=O)[C@H](C)NC(=O)[C@@H](NC(=O)[C@H](CCCCN)NC(=O)[C@H](C)NC(=O)[C@H](CC(C)C)NC(=O)[C@@H](NC(=O)CNC(=O)[C@H](Cc1ccccc1)NC(=O)[C@H](CC(C)C)NC(=O)CN)C(C)C)C(C)C)C(C)C)C(C)C)C(=O)N[C@@H](C)C(=O)N[C@@H](CCC(=O)O)C(=O)N[C@@H](Cc1cnc[nH]1)C(=O)N[C@@H](Cc1ccccc1)C(=O)N[C@@H](CCC(N)=O)C(=O)N[C@@H](C)C(N)=O [GLFGVLAKVASHVVPAIAEHFQA] | MIC (Enterococcus faecalis): ≥ 42.3 µM
2 | ≥ 61.4 | 3.68 (≈ 6 µg/mL) | 15.3 (≈ 25 µg/mL) | ≥ 61.4 | 7.37 (≈ 12 µg/mL) | 30.7 (≈ 50 µg/mL) | > 61.4 | 7.37 (≈ 12 µg/mL) | 30.7 (≈ 50 µg/mL) | – | – | – | – | CC[C@H](C)[C@H](NC(=O)[C@@H](NC(=O)[C@H](CO)NC(=O)[C@H](C)NC(=O)[C@@H](NC(=O)[C@H](CCCCN)NC(=O)[C@H](CCCCN)NC(=O)[C@@H](NC(=O)[C@@H](NC(=O)[C@H](CCCCN)NC(=O)[C@H](Cc1ccccc1)NC(=O)[C@H](CC(C)C)NC(=O)CN)C(C)C)[C@@H](C)CC)C(C)C)C(C)C)C(=O)NCC(=O)NCC(=O)N[C@@H](CC(C)C)C(N)=O [GLFKVIKKVASVIGGL] | –
3 | – | – | – | – | – | – | – | 0.747 (≈ 2.5 µg/mL) | – | – | – | – | – | CC[C@H](C)[C@H](NC(=O)[C@H](C)NC(=O)[C@H](CCSC)NC(=O)CNC(=O)[C@H](CCCCN)NC(=O)[C@@H](NC(=O)[C@H](CO)NC(=O)[C@H](CC(=O)O)NC(=O)[C@H](CC(C)C)NC(=O)[C@H](CC(C)C)NC(=O)CN)[C@@H](C)CC)C(=O)N[C@@H](CO)C(=O)N[C@@H](C)C(=O)NCC(=O)N[C@@H](CCCCN)C(=O)NCC(=O)N[C@@H](C)C(=O)N[C@@H](CC(C)C)C(=O)N[C@@H](CCC(N)=O)C(=O)N[C@@H](CC(N)=O)C(=O)N[C@@H](CC(C)C)C(=O)N[C@@H](CC(C)C)C(=O)N[C@@H](CCCCN)C(=O)N[C@H](C(=O)N[C@@H](C)C(=O)N[C@@H](CO)C(=O)N[C@H]1CSSC[C@@H](C(=O)O)NC(=O)[C@H]([C@@H](C)O)NC(=O)[C@H](CCCCN)NC(=O)[C@H](CC(=O)O)NC(=O)[C@H](CC(C)C)NC(=O)[C@H](CCCCN)NC1=O)C(C)C [GLLDSIKGMAISAGKGALQNLLKVASCKLDKTC] | MIC (Serratia marcescens): ≥ 59.7 µM; MIC (Salmonella typhimurium): 6.72 µM (≈ 22.5 µg/mL); MIC (Proteus mirabilis): ≥ 59.7 µM; MIC (Pseudomonas aeruginosa): 22.4 µM (≈ 75 µg/mL); MIC (Candida albicans): 29.9 µM (≈ 99.9 µg/mL); MIC (Klebsiella pneumoniae): 2.99 µM (≈ 9.99 µg/mL); MIC (Shigella dysenteriae): 2.99 µM (≈ 9.99 µg/mL)
4 | – | – | – | – | – | – | – | – | – | 12.5 (≈ 15.7 µg/mL) | – | – | – | CC(C)C[C@H](NC(=O)[C@H](CC(C)C)NC(=O)[C@H](CCCCN)NC(=O)CNC(=O)[C@H](C)NC(=O)[C@H](C)NC(=O)[C@H](CCCCN)NC(=O)[C@H](CC(C)C)NC(=O)[C@H](C)NC(=O)[C@H](CO)NC(=O)[C@H](CC(C)C)NC(=O)[C@H](CC(C)C)NC(=O)CN)C(N)=O [GLLSALKAAGKLL] | MIC [2]: > 25 µM; MIC [4]: 12.5 µM (≈ 15.7 µg/mL)
5 | 19.4 (≈ 50 µg/mL) | 2.33 (≈ 6 µg/mL) | > 38.8 | ≥ 38.8 | ≥ 38.8 | ≥ 38.8 | > 38.8 | 9.7 (≈ 25 µg/mL) | 19.4 (≈ 50 µg/mL) | – | – | – | – | CC[C@H](C)[C@H](NC(=O)[C@@H](NC(=O)[C@@H]1CCCN1C(=O)[C@@H](NC(=O)[C@@H](NC(=O)[C@H](Cc1cnc[nH]1)NC(=O)[C@@H]1CCCN1C(=O)[C@H](CC(C)C)NC(=O)[C@@H](NC(=O)[C@H](Cc1cnc[nH]1)NC(=O)[C@H](CCCCN)NC(=O)[C@H](C)NC(=O)[C@@H](NC(=O)[C@H](CO)NC(=O)CNC(=O)[C@H](CC(C)C)NC(=O)[C@@H](NC(=O)[C@H](CO)NC(=O)[C@H](CC(C)C)NC(=O)[C@H](CC(C)C)NC(=O)CN)C(C)C)C(C)C)C(C)C)C(C)C)C(C)C)C(C)C)C(=O)N[C@@H](C)C(=O)N[C@@H](CCC(=O)O)C(=O)N[C@@H](CCCCN)C(=O)N[C@@H](CC(C)C)C(N)=O [GLLSVLGSVAKHVLPHVVPVIAEKL] | –
6 | ≥ 41.7 | ≥ 41.7 | > 41.7 | ≥ 41.7 | ≥ 41.7 | ≥ 41.7 | > 41.7 | 1.25 (≈ 3 µg/mL) | ≥ 41.7 | – | – | – | – | CC[C@H](C)[C@H](NC(=O)CNC(=O)[C@H](CO)NC(=O)[C@@H](NC(=O)[C@H](CC(C)C)NC(=O)[C@H](CCC(=O)O)NC(=O)[C@H](CO)NC(=O)[C@H](C)NC(=O)[C@H](CCCCN)NC(=O)[C@H](CCC(=O)O)NC(=O)[C@H](CCCCN)NC(=O)[C@@H](NC(=O)[C@H](CCCCN)NC(=O)[C@H](CCC(=O)O)NC(=O)[C@H](Cc1c[nH]c2ccccc12)NC(=O)[C@H](CC(C)C)NC(=O)CN)[C@@H](C)CC)C(C)C)C(=O)N[C@H](C(=O)N[C@@H](CCC(=O)O)C(=O)NCC(=O)N[C@H](C(=O)N[C@@H](CCCCN)C(=O)O)C(C)C)C(C)C [GLWEKIKEKASELVSGIVEGVK] | –
7 | – | – | – | – | – | – | – | – | – | > 51.4 | ≥ 38.6 | – | – | CC[C@H](C)[C@H](NC(=O)[C@H](CCCCN)NC(=O)[C@H](CS)NC(=O)[C@H](CC(C)C)NC(=O)CNC(=O)CNC(=O)[C@H](C)NC(=O)[C@@H](NC(=O)[C@H](CC(N)=O)NC(=O)[C@H](CCCCN)NC(=O)[C@H](CC(C)C)NC(=O)[C@@H](NC(=O)[C@H](CC(N)=O)NC(=O)[C@H](C)NC(=O)[C@H](Cc1c[nH]c2ccccc12)NC(=O)CN)[C@@H](C)O)C(C)C)C(=O)N[C@H](C(=O)NCC(=O)N[C@@H](C)C(=O)N[C@@H](C)C(=O)O)[C@@H](C)O [GWANTLKNVAGGLCKITGAA] | MIC (Serratia marcescens): ≥ 51.4 µM; MIC (Acinetobacter baumannii): 19.3 µM (≈ 37.5 µg/mL); MIC (Klebsiella pneumoniae): > 51.4 µM; MIC [6]: 19.3 µM (≈ 37.5 µg/mL); MIC (Enterococcus faecium): 19.3 µM (≈ 37.5 µg/mL)
8 | – | – | – | – | – | – | – | – | – | 5.1 (≈ 13.1 µg/mL) | 5.1 (≈ 13.1 µg/mL) | 10.2 (≈ 26.2 µg/mL) | 20.4 (≈ 52.4 µg/mL) | CC[C@H](C)[C@H](N)C(=O)N[C@@H](CC(C)C)C(=O)N1CCC[C@H]1C(=O)N[C@@H](Cc1ccccc1)C(=O)N[C@H](C(=O)N[C@@H](C)C(=O)NCC(=O)N[C@H](C(=O)N[C@@H](C)C(=O)N[C@@H](C)C(=O)N[C@@H](CCC(=O)O)C(=O)N[C@@H](CCSC)C(=O)N[C@@H](CCSC)C(=O)N[C@@H](CCC(=O)O)C(=O)N[C@@H](Cc1cnc[nH]1)C(=O)N[C@H](C(=O)N[C@@H](Cc1ccc(O)cc1)C(=O)N[C@H]1CSSC[C@@H](C(=O)O)NC(=O)[C@H](CCCCN)NC(=O)[C@H](CCCCN)NC(=O)[C@H](CO)NC(=O)[C@H](C)NC(=O)[C@H](C)NC1=O)C(C)C)C(C)C)C(C)C [ILPFVAGVAAEMMEHVYCAASKKC] | –
9 | – | – | – | – | – | – | – | – | – | 3.81 (≈ 9.79 µg/mL) | 3.81 (≈ 9.79 µg/mL) | 1.91 (≈ 4.9 µg/mL) | 3.81 (≈ 9.79 µg/mL) | CC[C@H](C)[C@H](N)C(=O)N[C@@H](CC(C)C)C(=O)N1CCC[C@H]1C(=O)N[C@@H](Cc1ccccc1)C(=O)N[C@H](C(=O)N[C@@H](C)C(=O)NCC(=O)N[C@H](C(=O)N[C@@H](C)C(=O)N[C@@H](C)C(=O)N[C@@H](CCSC)C(=O)N[C@@H](CCC(=O)O)C(=O)N[C@@H](CCSC)C(=O)N[C@@H](CCC(=O)O)C(=O)N[C@@H](Cc1cnc[nH]1)C(=O)N[C@H](C(=O)N[C@@H](Cc1ccc(O)cc1)C(=O)N[C@H]1CSSC[C@@H](C(=O)O)NC(=O)[C@H](CCCCN)NC(=O)[C@H](CCCCN)NC(=O)[C@H](CO)NC(=O)[C@H](C)NC(=O)[C@H](C)NC1=O)C(C)C)C(C)C)C(C)C [ILPFVAGVAAMEMEHVYCAASKKC] | –
10 | – | – | – | – | – | – | – | – | – | 50.3 (≈ 100 µg/mL) | 25.1 (≈ 50 µg/mL) | 12.6 (≈ 25 µg/mL) | 12.6 (≈ 25 µg/mL) | CC[C@H](C)[C@H](NC(=O)[C@H](Cc1ccccc1)NC(=O)[C@@H](N)CCCN=C(N)N)C(=O)N[C@@H](Cc1ccc(O)cc1)C(=O)N[C@@H](CCSC)C(=O)N[C@@H](CCCCN)C(=O)NCC(=O)N[C@@H](Cc1ccccc1)C(=O)NCC(=O)N[C@@H](CCCCN)C(=O)N1CCC[C@H]1C(=O)N[C@@H](CCCN=C(N)N)C(=O)N[C@@H](Cc1ccccc1)C(=O)NCC(=O)N[C@@H](CCCCN)C(=O)N[C@@H](CCCN=C(N)N)C(=O)O [RFIYMKGFGKPRFGKR] | –
